Measured values published in patent publication US8835640B1, “Nicotine derivatives” (priority 2011, dated 2014).
≈ marks a conversion by molar mass, not a printed value.

Tests used:
[1] = test system: fungal cultures (Candida albicans & Cryptococcus neoformans); assay: Kirby-Bauer disc diffusion, fungi; assay type: cell-based
[2] = test system: Streptococcus mutans; assay: Kirby Bauer disc diffusion, Streptococcus mutans; assay type: cell-based
[3] = test system: M. tuberculosis (H37RV Strain) ATCC 25177; assay: Anti-TB activity, microplate Alamar Blue assay (MABA); assay type: cell-based, Mycobacterium Tuberculosis; conditions: for MIC: Mycobacterium tuberculosis, 120 h, read-out: MIC (minimum inhibition concentration); for MIC (minimum inhibition concentration): lowest drug concentration preventing colour change blue to pink, 37° C., five days, tested 100 to 0.2 μg/ml
[4] = test system: Corynebacterium; assay: Kirby Bauer disc diffusion, Corynebacterium; assay type: cell-based
[5] = test system: Male Wistar rats; assay: Eddy Hot Plate method; assay type: in vivo; conditions: 0.5 mg/kg and 1 mg/kg s.c., 55±0.5° C., compared to pentazocine 20 mg/kg s.c.
Experimental: Male Wistar rats initially weighing 180-200 g were divided into the following groups of six animals each as follows: • Experiment-I: • 1. Group-I: Control—10% Dimethyl sulfoxide (DMSO) (0.5 ml s.c) • 2. Group-II: Standard—Pentazocine (20 mg/kg body weight, s.c.) • 3. Group-III: Compound-ARP100102 (0.5 mg/kg body weight, s.c.) • Experiment-II: • Same as Experiment I except Group III dosage was 1 mg/kg body weight. • The hot plate method was originally developed by Woolfe and MacDonald (1944). The paws of rat are very sensitive to heat at temperatures which are not damaging to the skin. The response is in the form of jumping, withdrawal of paws or licking of the paws (Eddy and Leimback, 1953). The animals were placed on Eddy's hot plate at a temperature of 55±0.5° C. […] Reaction time and the type of response were noted using a stopwatch. The latency was recorded before and after 30, 60, 90 and 120 minutes following s.c. injection of test compounds (0.5 mg and 1 mg·kg), standard drug (pentazocine) and control vehicle respectively. The dose selection of the test compounds was based on the literature of nicotine (0.32-1.6 mg/kg s.c.). Average reaction time was then calculated and the percentage variation calculated using the following ratio: Percentage protection=Drug latency−Baseline latency×100Baseline latency

[6] = test system: Gram positive bacteria (Staphylococcus aureus, Enterococcus faecalis), Gram negative bacteria (E. Coli and Pseudomonas aeruginosa); assay: Kirby-Bauer disc diffusion, bacteria; assay type: cell-based
[7] = test system: Male Albino Mice; assay: Acetic Acid-Induced Writhing Response test; assay type: in vivo
Experimental: Group-I: Control-Normal saline (0.1 ml i.p./10 gm) • 2. Group-II: Diclofenac (10 mg/kg body weight, i.p.) • 3. Group-V: Compound-ARP100120 (3 mg/kg body weight, i.p.) • The number of writhes (abdominal muscular contractions), stretching of the hind limbs and trunk twisting were counted 5 minutes after the injection of 1% acetic acid (v/v, 0.1 mL/10 g body weight, i.p.). The data collected represented the total number of writhes observed in duration of 10 minutes (5-15 minutes after the injection). Percentage inhibition was then calculated. Percentage inhibition ═(N−N^t/N)×100, where N is the average number of writhing of control group and N^t is the average number of writhing of test group. • Results are as follows: […]

SMILES: CC(=O)c1ccc(-c2cncc(C(=O)C3CCN(C)C3=O)c2)s1 (stereo not shown) [ARP100101, 3-(5-(5-acetylthiophen-2-yl)nicotinoyl)-1-methylpyrrolidin-2-one]
- antifungal activity (zone of inhibition, disc diffusion) ([1]; 50 μg): exhibit antifungal activity
- antifungal activity (zone of inhibition, disc diffusion) ([1]; 100 μg): exhibit antifungal activity

SMILES: CN1CCC(C(=O)c2cncc(-c3ccc(F)cc3)c2)C1=O (stereo not shown) [ARP100102, 3-(5-(4-fluorophenyl)nicotinoyl)-1-methylpyrrolidin-2-one]
- antibacterial activity against Streptococcus mutans (inhibition zone) ([2]; 50 μg): good antibacterial activity
- antibacterial activity against Streptococcus mutans (inhibition zone) ([2]; 100 μg): good antibacterial activity
- MIC [3]: ≤ 0.05 µg/mL
- antifungal activity (zone of inhibition, disc diffusion) ([1]; 5 μg): exhibit antifungal activity
- antifungal activity (zone of inhibition, disc diffusion) ([1]; 25 μg): exhibit antifungal activity
- antifungal activity (zone of inhibition, disc diffusion) ([1]; 50 μg): exhibit antifungal activity
- antifungal activity (zone of inhibition, disc diffusion) ([1]; 100 μg): exhibit antifungal activity
- antibacterial activity against Corynebacterium (inhibition zone) ([4]; 50 μg): good antibacterial activity
- antibacterial activity against Corynebacterium (inhibition zone) ([4]; 100 μg): good antibacterial activity
- analgesic activity (reaction time in hot plate test) [5]: demonstrate analgesic activity

SMILES: Cc1cccc(-c2cncc(C(=O)C3CCN(C)C3=O)c2)c1 (stereo not shown) [ARP100104, 1-methyl-3-(5-m-tolylnicotinoyl)pyrrolidin-2-one]
- antifungal activity (zone of inhibition, disc diffusion) ([1]; 100 μg): exhibit antifungal activity

SMILES: CN1CCC(C(=O)c2cncc(-c3ccc(Cl)cc3)c2)C1=O (stereo not shown) [ARP100105, 3-(5-(4-chlorophenyl)nicotinoyl)-1-methylpyrrolidin-2-one]
- antibacterial activity (zone of inhibition, disc diffusion) ([6]; 50 μg): both antibacterial and antifungal activity
- antibacterial activity (zone of inhibition, disc diffusion) ([6]; 100 μg): both antibacterial and antifungal activity
- antifungal activity (zone of inhibition, disc diffusion) ([1]; 50 μg): both antibacterial and antifungal activity
- antifungal activity (zone of inhibition, disc diffusion) ([1]; 100 μg): both antibacterial and antifungal activity

SMILES: CN1CCC(C(=O)c2cncc(-c3ccc(C=O)cc3)c2)C1=O (stereo not shown) [ARP100106, 4-(5-(1-methyl-2-oxopyrrolidine-3-carbonyl)pyridin-3-yl)benzaldehyde]
- antibacterial activity (zone of inhibition, disc diffusion) ([6]; 100 μg): both antibacterial and antifungal activity
- antifungal activity (zone of inhibition, disc diffusion) ([1]; 100 μg): both antibacterial and antifungal activity

SMILES: COc1ccc(-c2cncc(C(=O)C3CCN(C)C3=O)c2)cc1 (stereo not shown) [ARP100108, 3-(5-(4-methoxyphenyl)nicotinoyl)-1-methylpyrrolidin-2-one]
- antifungal activity (zone of inhibition, disc diffusion) ([1]; 100 μg): exhibit antifungal activity

SMILES: CN1CCC(C(=O)c2cncc(-c3cccc(F)c3)c2)C1=O (stereo not shown) [ARP100111, 3-(5-(3-fluorophenyl)nicotinoyl)-1-methylpyrrolidin-2-one]
- antibacterial activity on both gram positive and gram negative bacteria ([6]; 100 μg): showed antibacterial activity

SMILES: CN1CCC(C(=O)c2cncc(-c3ccc4ccccc4c3)c2)C1=O (stereo not shown) [ARP100119, 1-methyl-3-(5-(naphthalen-2-yl)nicotinoyl)pyrrolidin-2-one]
- antifungal activity (zone of inhibition, disc diffusion) ([1]; 50 μg): exhibit antifungal activity
- antifungal activity (zone of inhibition, disc diffusion) ([1]; 100 μg): exhibit antifungal activity

SMILES: CC(=O)Oc1ccc(-c2cncc(C(=O)C3CCN(C)C3=O)c2)cc1 (stereo not shown) [ARP100120, 4-(5-(1-methyl-2-oxopyrrolidine-3-carbonyl)pyridin-3-yl)phenyl acetate]
- antifungal activity (zone of inhibition, disc diffusion) ([1]; 100 μg): exhibit antifungal activity
- analgesic activity (writhing test) ([7]; 3 mg/kg i.p.): demonstrate analgesic activity

SMILES: CN1CCC(C(=O)c2cncc(-c3cccc(C=O)c3)c2)C1=O (stereo not shown) [ARP100121, 3-(5-(1-methyl-2-oxopyrrolidine-3-carbonyl)pyridin-3-yl)benzaldehyde]
- antifungal activity (zone of inhibition, disc diffusion) ([1]; 50 μg): exhibit antifungal activity
- antifungal activity (zone of inhibition, disc diffusion) ([1]; 100 μg): exhibit antifungal activity

SMILES: CCCCc1cncc(C(=O)C2CCN(C)C2=O)c1 (stereo not shown) [ARP100122, 3-(5-butylnicotinoyl)-1-methylpyrrolidin-2-one]
- antifungal activity (zone of inhibition, disc diffusion) ([1]; 100 μg): exhibit antifungal activity

SMILES: O=C(O)c1cn(C2CC2)c2cc(N3CCNCC3)c(F)cc2c1=O [Ciprofolxacin]
- MIC (minimum inhibition concentration) [3]: 3.125 µg/mL (≈ 9.43 µM)

SMILES: O=C(O)Cc1ccccc1Nc1c(Cl)cccc1Cl [Diclofenac, reference compound]
- Number of Writhing ([7]; 5-15 minutes after 1% acetic acid i.p., Diclofenac 10 mg/kg i.p., ARP100120 3 mg/kg i.p.): 34.50 ± 1.586
- Percentage Inhibition (writhing) ([7]; versus control, Diclofenac 10 mg/kg i.p., ARP100120 3 mg/kg i.p.): 26.86%

SMILES: CN1CCCC1c1cccnc1 (stereo not shown) [Nicotine]
- antibacterial activity (disc diffusion) ([6]; 1000 μg/ml): did not show any antibacterial activity

SMILES: NC(=O)c1cnccn1 [Pyrazinamide]
- MIC [3]: 3.12 µg/mL (≈ 25.4 µM)

SMILES: CN[C@@H]1[C@H](O[C@H]2[C@H](O[C@H]3[C@H](O)[C@@H](O)[C@H](N=C(N)N)[C@@H](O)[C@@H]3N=C(N)N)O[C@@H](C)[C@]2(O)C=O)O[C@@H](CO)[C@H](O)[C@H]1O [Steptomycin]
- MIC (minimum inhibition concentration) [3]: 6.25 µg/mL (≈ 10.7 µM)
